Patent US20060073172A1, “Stabilized ophthalmic solution for the treatment of glaucoma and lowering intraocular pressure” (priority 2004, published 2006)

How the values were obtained:
5-HT2 receptors = conditions: cited from earlier work; for 5-HT2 receptor subtype selectivity: 5-HT2A, 5-HT2B, 5-HT2C
[1] = Stabilization of 1-(2-aminopropyl)-indazol-6-ol by classical antioxidants; assay type: physicochemical; conditions: aqueous solution

SMILES	5-HT2 receptor subtype selectivity (5-HT2 receptors)	Stabilization by classical antioxidants (sodium metabisulfite, propyl gallate, ascorbic acid) [1]	5-HT2 agonist activity (5-HT2 receptors)
COc1ccc2[nH]cc(CC(C)N)c2c1 (stereo not drawn) [5-methoxy-α-methyltryptamine]	profile similar to that of α-methyl-serotonin	–	–
COc1cc(C[C@@H](C)N)c(OC)cc1I [(R)-DOI, (R)4-iodo-2,5 dimethoxy-α-methyl-benzeneethanamine]	not selective amongst the 5-HT2 receptor subtypes	–	–
CC(N)Cn1ncc2ccc(O)cc21 (centres unmarked) [AL-34662, 1-(2-aminopropyl)-indazol-6-ol]	–	did not stabilize	–
CC(N)Cc1c[nH]c2ccc(O)cc12 (stereo not drawn) [α-methyl-serotonin]	modest receptor subtype selectivity: 5-HT2B>5-HT2C>5-HT2A	–	potent 5-HT2 agonist
